Source: patent US12630806B2 (priority 2020, dated 2026)
Entries after “also recorded” stand apart in the source; their conditions may differ. Where two headings read alike, the source gives them in different places.

What was measured:
[1] = tested on: FgAA7D, Fusarium graminearum PH-1, SEQ ID NO: 113; type: biochemical; settings: 150 nM enzyme, 10 mM cellobiose
[2] = target: T1, FgCelDH7C, Fusarium graminearum PH-1, SEQ ID NO: 1 (Table 2: SEQ ID NO: 31) (Fusarium graminearum, UniProt I1RWY4); settings: dehydrogenase assay, 0.1 mM DCIP, 0.1 μM enzyme, 50 mM HEPES pH 7.0, FgCelDH7C
[3] = target: T1, FgCelDH7C, Fusarium graminearum PH-1, SEQ ID NO: 1 (Table 2: SEQ ID NO: 31); type: biochemical; settings: oxidase assay, 20 mM cellobiose; for V0/E: estimated
[4] = target: T2, FgChiO7B, Fusarium graminearum, SEQ ID NO: 20 (Table 2: SEQ ID NO: 33) (Fusarium graminearum, UniProt A0ACM8RFH6); settings: oxidase assay, 50 mM NaOAc pH 5.2, FgChiO7B
[5] = target: T3, MoChiO7A, Magnaporthe (anamorph Pyricularia) oryzae 70-15, SEQ ID NO: 21 (Table 2: SEQ ID NO: 35) (Pyricularia oryzae, UniProt G4NAH7); settings: dehydrogenase assay, 0.1 mM DCIP, 0.1 μM enzyme, 50 mM HEPES pH 7.0, MoChiO7A
[6] = target: T3, MoChiO7A, Magnaporthe (anamorph Pyricularia) oryzae 70-15, SEQ ID NO: 21 (Table 2: SEQ ID NO: 35); settings: oxidase assay, 50 mM NaOAc pH 5.2, MoChiO7A
[7] = target: T2, FgChiO7B, Fusarium graminearum, SEQ ID NO: 20 (Table 2: SEQ ID NO: 33); settings: dehydrogenase assay, 0.1 mM DCIP, 0.1 μM enzyme, 50 mM HEPES pH 7.0, FgChiO7B
PaLPMO9H = experiment: AA7-LPMO synergy assay with PaLPMO9H on PASC or Avicel (HPAEC-PAD); type: biochemical, Podospora anserina
[8] = target: T4, PsAA7A, Phytophthora sojae, SEQ ID NO: 7 (Table 2: SEQ ID NO: 37) (Phytophthora sojae, UniProt G4YI39); type: biochemical
T4 sequence (G4YI39 23-504): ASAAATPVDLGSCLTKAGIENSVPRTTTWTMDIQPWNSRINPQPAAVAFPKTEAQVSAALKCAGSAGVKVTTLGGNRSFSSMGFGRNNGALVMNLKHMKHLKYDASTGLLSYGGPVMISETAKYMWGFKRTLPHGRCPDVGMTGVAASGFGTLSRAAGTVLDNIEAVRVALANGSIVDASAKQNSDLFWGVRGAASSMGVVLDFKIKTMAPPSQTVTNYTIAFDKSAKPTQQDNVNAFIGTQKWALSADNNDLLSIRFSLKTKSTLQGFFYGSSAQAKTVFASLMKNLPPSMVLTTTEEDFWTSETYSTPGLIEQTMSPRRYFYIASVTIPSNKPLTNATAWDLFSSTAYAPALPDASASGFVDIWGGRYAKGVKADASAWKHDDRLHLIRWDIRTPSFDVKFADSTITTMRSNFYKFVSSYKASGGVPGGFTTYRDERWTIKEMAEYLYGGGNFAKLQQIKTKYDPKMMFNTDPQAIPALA

[9] = target: T4, PsAA7A, Phytophthora sojae, SEQ ID NO: 7 (Table 2: SEQ ID NO: 37); type: biochemical; remark: listed apart in the source
[10] = type: biochemical; settings: GalA; V0/E values

With `OC[C@H]1O[C@@H](O[C@H]2[C@H](O)[C@@H](O)C(O)O[C@@H]2CO)[C@H](O)[C@@H](O)[C@@H]1O` (some centres unmarked) [Cellobiose, cellobiose] the Estimated oxidase activity [1] was 0.001 s⁻¹, the kcat [2] was 30.8 ± 0.81 s⁻¹ and the “normalized rate (slope of linear region/E), initial burst” value ([3]; 150 μM enzyme) was 0.00029 s⁻¹. The “reaction rate, second phase” value ([3]; 150 μM enzyme) was 7e-05 s⁻¹, the “normalized rate (slope of linear region/E), initial burst” value ([3]; 500 μM enzyme) was 0.00013 s⁻¹ and the “reaction rate, second phase” value ([3]; 500 μM enzyme) was 4.1e-05 s⁻¹. The V0/E ([3]; 150 uM enzyme) was “(2.93E−4^c) s^−1” and the V0/E ([3]; 500 uM enzyme) was 1.29E−4^b s^−1.

`OC[C@H]1O[C@@H](O[C@H]2[C@H](O)[C@@H](O)[C@H](O[C@H]3[C@H](O)[C@@H](O)[C@H](O[C@H]4[C@H](O)[C@@H](O)C(O)O[C@@H]4CO)O[C@@H]3CO)O[C@@H]2CO)[C@H](O)[C@@H](O)[C@@H]1O` (some centres unmarked) [Cellotetraose, cellotetraose] gave a kcat [2] of 39.2 ± 0.76 s⁻¹.

With `OC[C@H]1O[C@@H](O[C@H]2[C@H](O)[C@@H](O)[C@H](O[C@H]3[C@H](O)[C@@H](O)C(O)O[C@@H]3CO)O[C@@H]2CO)[C@H](O)[C@@H](O)[C@@H]1O` (some centres unmarked) [Cellotriose, cellotriose] the kcat [2] was 36.1 ± 0.74 s⁻¹.

In the case of `CC(=O)N[C@H]1[C@H](O[C@H]2[C@H](O)[C@@H](NC(C)=O)C(O)O[C@@H]2CO)O[C@H](CO)[C@@H](O)[C@@H]1O` (some centres unmarked) [Chitobiose, chitobiose], the kcat [4] is reported as 2.27 ± 0.03 s⁻¹, the kcat [5] is reported as 22.4 ± 0.5 s⁻¹ and the kcat [6] is reported as 4.37 ± 0.12 s⁻¹. The kcat [7] was 29.3 ± 0.41 s⁻¹.

`CC(=O)N[C@H]1[C@H](O[C@H]2[C@H](O)[C@@H](NC(C)=O)C(O)O[C@@H]2CO)O[C@H](CO)[C@@H](O[C@@H]2O[C@H](CO)[C@@H](O)[C@H](O)[C@H]2NC(C)=O)[C@@H]1O` (some centres unmarked) [Chitotriose, chitotriose] showed a kcat [4] of 6.14 ± 0.29 s⁻¹ and a kcat [6] of 3.71 ± 0.09 s⁻¹.

With `O=C1C=CC(=Nc2cc(Cl)c(O)c(Cl)c2)C=C1` [DCIP, 2,6-dichlorophenolindophenol] the “synergy with PaLPMO9H: released cello-oligosaccharides from PASC” value (PaLPMO9H) was “inhibited the observed synergy”.

In the case of `O=C(O)[C@H]1OC(O)[C@H](O)[C@@H](O)[C@H]1O` (some centres unmarked) [GalA, galacturonic acid], the V0/E [8] is reported as 1.7E−4^d s^−1, the “oxidase activity estimated from the linear segments after the initial delayed burst” value [8] is reported as 1.7±0.6 ×10^−4 s^−1 and the “dehydrogenase activity (V0/E)” value [9] is reported as 6.4 s⁻¹.

`CC(=O)N[C@H]1C(O)O[C@H](CO)[C@H](O)[C@@H]1O` (some centres unmarked) [GalNAc] showed a kcat [6] of 3.67 ± 0.06 s⁻¹.

`CC(=O)N[C@H]1C(O)O[C@H](CO)[C@@H](O)[C@@H]1O` (some centres unmarked) [GlcNAc] gave a kcat [4] of 6.76 ± 0.31 s⁻¹ and a kcat [6] of 3.8 ± 0.07 s⁻¹.

B1: HRP: horseradish peroxidase, captures H2O2 (protein, UniProt P00433 31-338, looked up)
Peroxidase C1A: QLTPTFYDNSCPNVSNIVRDTIVNELRSDPRIAASILRLHFHDCFVNGCDASILLDNTTSFRTEKDAFGNANSARGFPVIDRMKAAVESACPRTVSCADLLTIAAQQSVTLAGGPSWRVPLGRRDSLQAFLDLANANLPAPFFTLPQLKDSFRNVGLNRSSDLVALSGGHTFGKNQCRFIMDRLYNFSNTGLPDPTLNTTYLQTLRGLCPLNGNLSALVDFDLRTPTIFDNKYYVNLEEQKGLIQSDQELFSSPNATDTIPLVRSFANSTQTFFNAFVEAMDRMGNITPLTGTQGQIRLNCRVVNSNS
In the case of B1, the “effect of additive on PaLPMO9H-FgCelDH7C synergy / LPMO activity” value (PaLPMO9H; Avicel, 18 h at 35° C., HRP or SOD added) is reported as “inhibitory of the LPMO activity; also recorded: abolished the activity”.

B2: PsAA7A: AA7 clade IIb enzyme from Phytophthora sojae, active on glucuronic and galacturonic acid (protein, listed as Phytophthora sojae)
chain: MVSSASSAIFALCSLIAAQSGLASAAATPVDLGSCLTKAGIENSVPRTTTWTMDIQPWNSRINPQPAAVAFPKTEAQVSAALKCAGSAGVKVTTLGGNRSFSSMGFGRNNGALVMNLKHMKHLKYDASTGLLSYGGPVMISETAKYMWGFKRTLPHGRCPDVGMTGVAASGFGTLSRAAGTVLDNIEAVRVALANGSIVDASAKQNSDLFWGVRGAASSMGVVLDFKIKTMAPPSQTVTNYTIAFDKSAKPTQQDNVNAFIGTQKWALSADNNDLLSIRFSLKTKSTLQGFFYGSSAQAKTVFASLMKNLPPSMVLTTTEEDFWTSETYSTPGLIEQTMSPRRYFYIASVTIPSNKPLTNATAWDLFSSTAYAPALPDASASGFVDIWGGRYAKGVKADASAWKHDDRLHLIRWDIRTPSFDVKFADSTITTMRSNFYKFVSSYKASGGVPGGFTTYRDERWTIKEMAEYLYGGGNFAKLQQIKTKYDPKMMFNTDPQAIPALA
modifications: peptide (1)..(504) PsAA7A from Phytophthora sojae - an AA7 enzyme belonging to clade IIb
In the case of B2, the “synergy to LPMO catalyzed degradation of avicel” value (PaLPMO9H; Avicel 0.5% (w/v), 35° C., 24 h, PaLPMO9H, AA7 with its substrate (cellotetraose or galacturonic acid 0.8 mM)) is reported as “does not (or does only with a far lower extent) confer synergy” and the dehydrogenase/oxidase ratio [10] is reported as “about 4×10^4”.
